Reference: patent publication US20080269121A1, “Methods and Compositions Involving A1c Subunit of L-Type Calcium Channels in Smooth Muscle Cells” (The Board of Regents of the University of Texas System, priority 2005, published 2008)
“Also recorded” adds a separate entry of the source. Read-outs that look alike come from different tables or passages of the source.

Legend:
[1] = tested on: α1C subunit of L-type Ca^2+ channels; experiment: Q-PCR of α1C mRNA expression in HCCSMC; assay type: cell-based, human; details: for induction of α1C mRNA expression: HCCSMC
From the text: (§1) Primary cultures of HCCSMC: Human tissue was obtained from the descending and sigmoid colons with approval of the University of Texas Medical Branch Institutional Review Board from disease free margins of resected segments from patients undergoing surgery for colon cancer. The circular muscle layer was separated from the taenia coli and lamina propria with a tissue slicer. The circular muscle layer was collected in ice-cold HEPES buffer (in mM: 120 NaCl, 2.6 KH2S04, 4 KCl, 2 CaCl2, 0.6 MgCl2, 25 HEPES, 14 glucose and 2.1% essential amino acid mixture, pH 7.4). Two successive digestions with papain and collagenase, as described previously by Shi and Sarna, were used to disperse smooth muscle cells. The cells were cultured in RPMI 1640 (Gibco/Invitrogen, Carlsbad, Calif.) supplemented with 10% fetal bovine serum in the presence of 100 units/mL of penicillin G, 100 μg/mL of streptomycin sulfate and 0.25 μg/mL of amphoteracin B. The culture medium was changed every three days. Cells in passages 3 to 5 were used in all experiments. All cells were cultured in serum-free medium for at least 15 h prior to experiments to eliminate the possible effects of growth factors. […] The cultures of colonic smooth muscle cells retain their contractile phenotype. Each experiment used cells or muscle strips from at least three different subjects.
Total RNA was extracted from cells using the Qiagen RNeasy kit (Qiagen, Valencia, Calif.) by following the manufacturer's protocol. The cDNAs were made using the Superscript First-Strand Synthesis System (Invitrogen, Carlsbad, Calif.).
Quantitive real-time-polymerase chain reaction (Q-PCR). Q-PCR assay is employed to determine gene expression using TaqMan technology on Applied Biosystems 7000 sequence detection system (UTMB Real-time PCR Core Facility). Applied Biosystems Assays-By-Design containing a 20× assay mix of primers and TaqMan MGB probes (FAMTM dye-labeled) are used for a target gene and the endogenous control, human 18s RNA. These assays were designed using primers that span exon-exon junctions so as not to detect genomic DNA. All primer and probe sequences were searched against the Celera data base to confirm specificity. The primer and probe sequences used were as follows: human Cav1.2 channel oα1C intermediate form (Cav1.2b) probe spanning exon 1b and exon 2, […] (SEQ ID NO:4): forward primer, […] (SEQ ID NO:5): reverse primer, […] (SEQ ID NO:6). Human Cav1.2 channel α1C long form (Cav1.2a) probe spanning exon 1a and exon 2: […] (SEQ ID NO:7): forward primer, […] (SEQ ID NO:8): reverse primer. […] (SEQ ID NO:6).

[2] = tested on: α1C1b promoter; experiment: α1C1b promoter luciferase reporter activity in HCCSMC; assay type: cell-based, human; details: for α1C1b promoter reporter (luciferase) activity: substance by itself; for effect on enhancement of α1C1b promoter activity by VIP: with VIP
Procedure: Transient cell transfections and luciferase activity. FuGENE 6 (Roche, Mannheim, Germany) is used to transfect luciferase-expressing pGL2 constructs in HCCSMC. The cells in passage 4 are seeded into 12-well plates (Costar, Acton, Mass.) and grown to 70% to 80% confluency. Transfections are carried out by incubation of cells in each well with 1.5 μl of FuGENE 6, 0.5 μg of pGL2 construct, and 0.125 μg of pSEAP2 Control Vector (BD Biosciences Clontech, Palo Alto, Calif.) for 24 h as per manufacturer's instructions. The pSEAP2 Control Vector is co-transfected for normalization of data. The transfected cells were treated with stimulus or medium control and harvested after 24 hours. Twenty μl of the supernatant of the cell lysates are taken for the measurement of luciferase activity by a luminometer (Promega, Madison, Wis.). The SEAP activity is measured with a Clontech SEAP detection kit by following the manufacturer's instructions.
Promoter constructs, 5′-deletions, and site-directed mutagenesis. The promoter constructs of hα1c1b are prepared by PCR amplification of human genomic DNA (Roche, Indianapolis, Ind.) and digested partially with Hind III (Promega, Madison, Wis.) using the FailSafe PCR kit (Epicentre, Madison, Wis.). The PCR product is subcloned into pDrive Cloning Vector with the PCR Cloning^plus kit (Qiagen, Valencia, Calif.) and SURE 2 supercompetent cells (Stratagene, La Jolla, Calif.) and subsequently transferred to the luciferase expression plasmid pGL2-Basic Vector (Promega, Madison, Wis.). The deletion constructs are made using the full length promoter construct as a template in PCR reactions. The same methods and kits are used to subclone the sequenced PCR products into the pDrive and pGL2 vector. The site-directed mutagenesis is carried out using QuikChange® II XL Site-Directed Mutagenesis Kit from Stratagene (La Jolla, Calif.), as per manufacturer's instructions.

[3] = tested on: Cav1.2a; details: neonatal rat ventricular myocytes; cited from earlier work
[4] = tested on: rat middle colon muscle strips; experiment: Osmotic pump administration in rats, contractile response of colon muscle strips; assay type: in vivo; details: systemic administration by osmotic pump for 3 days
Procedure: (§2) Muscle bath experiments. Pure circular muscle strips (2 mm×10 mm) are prepared from resected human colon segments. The strips are mounted in 5 ml baths filled with carbonated Krebs solution (in mM: 118 NaCl, 4.7 KCl, 2.5 CaCl2, 1 NaH2PO4, 1-2 MgCl2, 11 D-glucose, and 25 NaHCO3) at 37° C. (Siebenlist et al., 1994; Barnes and Karin, 1997). The muscle strips are equilibrated for 1 h at 1 g tension and then stretched until maximal response is obtained to 10^−4 m ACh. The bathing solution is replaced every 15 min. Contractions are measured by force transducers and analyzed by DATAQ (Akron, Ohio) software.
(§3) Vertebrate Animals. Sprague-Dawley rats were used. For tissue harvesting, the rats were anesthetized with 5% isoflurame in 100% oxygen for 5 to 7 minutes followed by i.p. injection of 50 mg/kg ketamine.
(§4) Osmotic pumps were implanted under anesthesia as discussed above. Lateral surface of left back were shaven and cleaned with betadine. A 2 cm incision was made in the skin and subcutaneous facia and muscle separated. The micro-osmotic pump were implanted intramuscularly and the incision was closed.

[5] = tested on: TNBS-induced inflammation; assay type: in vivo, rat; details: for suppression of contractile response, with sub-threshold dose of TNBS: osmotic pump plus TNBS 30 mg/kg, compared with TNBS 130 mg/kg
Procedure: as §2, §3, §4
Colonic inflammation was induced by intraluminal injection of 30 mg/kg or 130-mg/kg trinitrobenzene sulfonic acid (TNBS) under anesthesia, as described above.

[6] = tested on: human colonic circular muscle strips; experiment: Muscle bath: contractile response of human colonic circular muscle strips; assay type: cell-based
Procedure: as §2
The protocol for transfection of sense and antisense oligonucleotides in freshly obtained muscle strips was similar to that in HCCSMC. The circular muscle layer was isolated from the fall thickness human colon, and sliced into 2 mm×10 mm muscle strips. The strips were incubated in RPMI 1640 without serum. The sense and antisense oligonucleotides (10 μM) were added into the medium for 24 h before incubation with 20 ng/mL TNFα for 24 h.

[7] = tested on: CRE1 and CRE2; experiment: Oligonucleotide agarose conjugate pull-down of CREB; assay type: cell-based, human; details: with VIP, FIG. 10
[8] = tested on: p65 subunit; experiment: Nuclear abundance and binding of NF-κB p65 in HCCSMC; assay type: cell-based, human
Procedure: Cytoplasmic and nuclear protein, and RNA extraction: Cytoplasmic and nuclear proteins were prepared as described earlier by Shi et al. Briefly, the cells were washed twice with phosphate-buffered saline solution and then with buffer A (in mM: 10 HEPES, 1.5 MgCl2, 10 KCl, 0.5 dithiothreitol, 0.5 phenylmethylsulfrenyl fluoride [PMSF]; 10 ng/mL leupeptin, and 10 ng/mL aprotinin). The cells were resuspended in 25 μL of buffer A containing 0.25% NP-40 and incubated at 4° C. for 10 minutes. After centrifugation at 12,000 g for 10 minutes, the supernatant was collected as cytoplasmic extract. The nuclear pellet was resuspended in 20 μL of buffer C (in mM: 20 HEPES, […], 1.5 MgCl2, 0.2 ethylenediaimetetraacetic acid (EDTA), 0.5 DTT, 0.5 PMSF; 24% glycerol, 10 ng/mL leupeptin, and 10 ng/mL aprotinin) and incubated on ice with frequent vortexing for 15 minutes. The samples were centrifuged at 14,000 g for 10 minutes, and the supernatant (nuclear extract) was transferred to a fresh tube with 5 volumes of buffer D (in mM: 20 HEPES, 0.2 EDTA, 50 KCl, 0.5 DTT, 0.5 PMSF; 20% glycerol, 10 ng/mL leupeptin, and 10 ng/mL aprotinin). The protein concentration was determined by using the Bio-Rad assay kit (Bio-Rad Laboratories, Hercules, Calif.).
Electrophoretic mobility shift assay. […]

[9] = tested on: α1C subunit of L-type Ca^2+ channels; experiment: α1C protein expression (Western immunoblotting); assay type: cell-based, human; details: muscle strip tissue, FIG. 14 top
From the text: as §1
Western immunoblotting. Each lane is loaded with 10 μg protein and size-separated on a 10% SDS polyacrylamide gel. After blotting, the nitrocellulose membranes are blocked with 10% non-fat dried milk at 4° C. overnight. The blots are incubated with appropriate dilution of the antibody at 4° C. overnight and appropriate dilution of designated secondary antibody at room temperature for 1 h. β-actin is used as internal control.

In the case of `O=S(=O)(NCCNC/C=C/c1ccc(Br)cc1)c1cccc2cnccc12` [H-89], the “effect on α1C mRNA on its own” value ([1]; FIG. 4) is reported as “no effect on its own” and the “effect on VIP enhancement of α1C mRNA” value ([1]; FIG. 4, with VIP) is reported as “partially inhibited the effect of VIP”.
For `COc1cccc(-c2cc(=O)c3ccccc3o2)c1N` [PD98059], the “α1C1b promoter reporter (luciferase) activity” value (“α1C1b promoter reporter” below) [2] was “little effect” and the “effect on enhancement of α1C1b promoter activity by VIP” value [2] was “little effect”.
In the case of `Oc1ccc(-c2nc(-c3ccncc3)c(-c3ccc(F)cc3)[nH]2)cc1` [SB202190], the “α1C1b promoter reporter” value [2] is reported as “little effect” and the “effect on enhancement of α1C1b promoter activity by VIP” value [2] is reported as “somewhat blunt the enhancement”.
In the case of `CC(C)NCC(O)c1ccc(O)c(O)c1` (centres unmarked) [isoproterenol], the “Cav1.2a mRNA” value [3] is given as “transient increase in Cav1.2a mRNA” and the “increase in peak current density” value [3] is given as “about 40%”.
In the case of `NC[C@H](O)c1ccc(O)c(O)c1` [norepinephrine], the “induction of α1C mRNA expression” value [1] is reported as “induced the expression of α1C mRNA”.
In the case of (p-chloro-D-Phe^6, Leu^17)-VIP, the “contractile response of rat colon muscle strips to ACh” value [4] is reported as “suppressed the contractile response”, the “suppression of contractile response, with sub-threshold dose of TNBS” value ([5]; listed as VIP receptor antagonist) is reported as “increased the suppression of contractile response” and the “suppression of contractile response, with sub-threshold dose of TNBS” value ([5]; listed as VIP/PACAP receptor antagonist) is reported as “enhanced the suppression of contractility”. The “contractile response to ACh, antagonist by itself” value ([5]; osmotic pump, no TNBS, FIG. 15) was “suppressed the contractile response” and the diarrhea ([5]; rat, in vivo) was “did not develop diarrhea”.
For TNFα, the “contractile response of circular muscle strips to ACh” value ([6]; strips incubated 24 h, organ bath) was “suppresses their contractile response to ACh; also recorded: suppressed the contractile response to ACh; also recorded: suppression of contractility”, the “α1C1b promoter reporter” value [2] was “reduced luciferase activity; also recorded: suppressed it” and the “effect on CREB binding after VIP treatment” value [7] was “abrogated; also recorded: reduces the binding after VIP treatment”. For the same compound, the “nuclear abundance and binding of p65” value [8] was “enhanced the nuclear abundance and binding of p65”.
For “pituitary adenylate cyclase-activating peptide [PACAP]”, the “induction of α1C mRNA expression” value [1] was “induced expression”, the “effect on TNFα suppression of α1C protein” value [9] was “minimized” and the “effect on TNFα suppression of contractile response to ACh” value ([6]; muscle strips, treatment before/with TNFα) was “significantly reduces the suppression”. The “effect on suppression of α1C1b promoter activity by TNFα” value ([2]; with TNFα) was “significantly blocked this reduction” and the “effect on suppression of contractility due to TNBS-induced inflammation” value ([5]; intact rat model, treatment through osmotic pumps, expected) was “partially inhibit the suppression of contractility”.
